Assay results from patent publication US20090186809A1, “USE OF VALPROIC ACID FOR THE TOPICAL TREATMENT OF MILD TO MODERATE ACNE VULGARIS” (TOPOTARGET GERMANY AG, priority 2006, published 2009).

Legend:
[1] = patients' assessment of local tolerability (5-point scale) and adverse events; type: in vivo, human; conditions: for assessments of local tolerability graded "acceptable" / assessments of local tolerability graded "poor" / assessments of local tolerability graded "well": percentage of all patient assessments over the study visits, topical
Experimental: • Safety laboratory parameters • Clinical safety examinations • Adverse events • Patient's assessment of local tolerability according to a 5-point scale.
In addition to the assessment of the therapeutical efficacy, the patients' assessments of local tolerability and the side effect profile was recorded in this clinical study described in example 1. FIG. 4 summarizes the patients' assessments of local tolerability which was recorded on each visit of the patients during the study period which took place on days 14, 24, 56 and 85. The patients assessed their perception of local tolerability according to the following grading scheme: […]

[2] = VPA content in blood (serum) after topical application, HPLC; type: in vivo; conditions: human, read-out: serum level of VPA
Experimental: (§1) VPA was provided as a clear off-white, semi-solid 3% gel (30 mg/ml VPA). After washing the face with a mild cleanser, the gel was applied daily to the clean and dry skin once daily.
In parallel, an analysis of the VPA content in the blood of acne vulgaris patients treated topically with a 3% VPA containing medication was performed using HPLC based methodology, and the results are presented in FIG. 3. […] These serum concentration levels were measured after daily treatment with up to approx. 2.000 mg of a 3% VPA containing medication topically applied which refers to a total daily dose of VPA approx. 60 mg. If more or larger lesions would be treated, and therefore higher daily amounts of VPA would be topically applied, it is expected that accordingly higher serum levels may be obtained.

[3] = system: mild to moderate facial acne vulgaris; experiment: double-blind, randomized clinical study: counting of facial acne lesions; type: in vivo, human; conditions: for patients displaying for the first time a reduction of ≧30% in the total counts of all acne lesions: topical once daily, VPA 3% gel, isotretinoin 0.05% gel; for mean reduction of the number of acne lesions: day 85 compared to baseline (day 1), topical monotherapy
Experimental: This study was carried out as a double-blind, randomized study. Under informed consent patients with mild to moderate facial acne vulgaris were enrolled in the study. The treatment period was 12 weeks.
as §1
As a comparator reference therapy the retinoid isotretinoin was provided as a 0.05% gel (0.5 mg isotretinoin/g).
• Assessment of the therapeutic efficacy compared to the baseline was evaluated separately by the investigator and by the patient according to a 7-point scale • Counting of lesions in the entire face • Investigator's overall assessment of improvement by means of a photo documentation.
• efficacy: change of total count of facial acne lesions from baseline to the end of week 12 (comparing day 1 to day 85, i.e., d1, d85)
• efficacy: time to reduction of acne lesions by >30% • count of acne lesions in the face after 2, 4, 8 and 12 weeks of treatment and its percentage and absolute change to baseline • safety/tolerability: safety laboratory parameters • clinical safety • patient's assessment of local tolerability
In the clinical study described in Example 1, also the time to reduction of the total counts by ≧30% of all acne lesions treated was investigated on each visit of the patients to the study hospital. Once the reduction had reached ≧30%, the actual at this point estimated reduction rate and the day of the visit was recorded.
In the clinical study described in Example 1, the counts of acne lesions treated were also assessed as counts of different types of lesions separately, i.e., recording the number of inflammatory lesions, and recording the number of non-inflammatory lesions separately.

Row | Structure (SMILES) | adverse events observed ([1]; patients treated topically, all resolved after end of study) | assessments of local tolerability graded "acceptable" [1] [%] | assessments of local tolerability graded "poor" [1] [%] | assessments of local tolerability graded "well" [1] [%] | concentration at 56 day ([2]; day 56, daily topical up to approx. 2.000 mg of 3% VPA medication (approx. 60 mg VPA)) [ng/mL] | concentration at 85 day ([2]; day 85, daily topical up to approx. 2.000 mg of 3% VPA medication (approx. 60 mg VPA)) [ng/mL] | patients displaying for the first time a reduction of ≧30% in the total counts of all acne lesions ([3]; day 28) | patients displaying for the first time a reduction of ≧30% in the total counts of all acne lesions ([3]; day 85) | mean reduction of the number of acne lesions [3] | median counts of inflammatory lesions ([3]; end of treatment day 85, day 1 before treatment 30) [lesions] | median counts of non-inflammatory lesions ([3]; end of treatment day 85, day 1 before treatment 41) [lesions]
1 | CCCC(CCC)C(=O)O [VPA, 2-propyl-pentanoic acid] | mild to moderate administration site conditions | 23.8 | 4.8 | 61.9 | ≤ 2440 | ≤ 1590 | three | two | approx. 57% | 14.4 | 11.5
2 | CC1=C(/C=C/C(C)=C/C=C/C(C)=C\C(=O)O)C(C)(C)CCC1 [isotretinoin] | – | 40.5 | 11.9 | 38.1 | – | – | three | two | approx. 54% | – | –
